Measurements published in patent US6049003A, “Azoamidine compound” (Wako Pure Chemical Industries, Ltd., priority 1998, dated 2000).

Key:
[1] = emulsion polymerization of styrene with the azoamidine compound as initiator (Table 2); details: for Polymerization Rate(%): sodium dodecyl sulfate
Experimental: Distilled water (400 g), sodium dodecyl sulfate (4 g) and azoamidine compound (0.5 g) obtained in Example 1 were mixed with one another and were stirred to give a solution, and 200 g of styrene monomer was added thereto, followed by stirring to make emulsion. The resultant was subjected to polymerization reaction at 50° C. with stirring under nitrogen gas atmosphere. After the polymerization reaction was started, samplings of the reaction solution were conducted at predetermined intervals, and the samples were precipitated by methanol to recover the produced polymer, followed by drying. The polymerization rates at each sampling time were measured.
The same emulsion polymerization as Example 5 was conducted except for using a typical known azoamidine compound, of 2,2'-azobis(2-methylpropionamidine) dihydrochloride as a polymerization initiator.

[2] = comparison of solubility in various kinds of solvents (Table 3); type: physicochemical
[3] = solution polymerization of acrylamide with the azoamidine compound as initiator (Table 1); details: acrylamide in water, 50° C.
Experimental: Acrylamide (20 g) was dissolved in 380 g of distilled water and 0.01 g of the azoamidine compound obtained in Example 1 was added thereto as a polymerization initiator. The reaction solution was heated at 50° C. with stirring under nitrogen gas atmosphere to cause polymerization reaction. After the polymerization reaction was started, samplings of the reaction solution were conducted at predetermined intervals, and the samples were precipitated by methanol to recover the produced polymer, followed by drying. The polymerization rates at each sampling time were measured.
The same polymerization reaction as Example 4 was conducted except for using azoamidine compounds, in which an α-amino acid residue as introduced, of 2,2'-azobis(N-carboxymethyl-2-methylpropionamidine) [drawing 10] or 2,2'-azobis[N-(1-carboxyethyl)-2-methylpropionamidine] [drawing 11] as a polymerization initiator.

[4] = 10 hours half life temperature; type: physicochemical
[5] = decomposition rate constant at 50° C. (Table 1); type: physicochemical
[6] = 50° C., polymerization time 1 H
[7] = 50° C., polymerization time 1.5 H
[8] = 50° C., polymerization time 2 H
[9] = 50° C., polymerization time 3 H
[10] = 50° C., polymerization time 4 H
[11] = 50° C., polymerization time 5 H
[12] = 50° C., polymerization time 6 H

SMILES	Polymerization Rate(%) [1, 6]	Polymerization Rate(%) [1, 7]	Polymerization Rate(%) [1, 8]	Polymerization Rate(%) [1, 9]	Polymerization Rate(%) [1, 10]	Polymerization Rate(%) [1, 11]	Polymerization Rate(%) [1, 12]	solubility in Methanol (in words) ([2]; Methanol)	solubility in Water [2]	Polymerization Rate(%) ([3]; polymerization time 1 H)	Polymerization Rate(%) ([3]; polymerization time 1.5 H)	Polymerization Rate(%) ([3]; polymerization time 2 H)	Polymerization Rate(%) ([3]; polymerization time 3 H)	Polymerization Rate(%) ([3]; polymerization time 4 H)	Polymerization Rate(%) ([3]; polymerization time 5 H)	Polymerization Rate(%) ([3]; polymerization time 6 H)	other results
CC(C)(N=NC(C)(C)C(=N)N)C(=N)N.Cl.Cl [Reference Example 3, 2,2'-azobis(2-methylpropionamidine) dihydrochloride]	32.0%	37.1%	69.9%	88.4%	91.4%	93.1%	92.2%										dead end phenomenon in emulsion polymerization ([1]; 50° C.): dead end phenomenon was observed; polymerization rate at 6 hour polymerization and later (in words) ([1]; 6 hours and later): reduced
CC(NC(=N)C(C)(C)N=NC(C)(C)C(=N)NC(C)C(=O)O)C(=O)O (stereo not drawn) [Reference Example 2, 2,2'-azobis[N-(1-carboxyethyl)-2-methylpropionamidine]]								insoluble	0.8%	19.0%	24.2%	28.8%	33.8%	38.5%	46.3%	47.1%	
CC(C)(N=NC(C)(C)C(=N)NCCC(=O)O)C(=N)NCCC(=O)O.O.O [Example 1, 2,2'-azobis[N-(2-carboxyethyl)-2-methylpropionamidine] dihydrate]	25.2%	51.0%	74.3%	89.2%	93.5%	94.4%	95.4%		10.0%	6.7%	22.3%	34.2%	53.3%	64.8%	70.6%	74.7%	10 hours half life temperature [4]: 57 °C; solubility in Methanol ([2]; Methanol): 36.9%; Decomposition Rate Constant at 50° C. [5]: 7.3e-06 s⁻¹
CC(C)(N=NC(C)(C)C(=N)NCC(=O)O)C(=N)NCC(=O)O [Reference Example 1, 2,2'-azobis(N-carboxymethyl-2-methylpropionamidine)]								insoluble	0.4%	15.8%	21.2%	25.0%	32.5%	37.2%	38.3%	41.2%	
